From patent US8802849B2, “Tricyclic benzo[4,5]thieno-[2,3-d]pyrimidine-4-yl-amin derivatives, their salts, process for producing the compounds and their pharmaceutical use” (Vichem Chemie Kutató Kft., priority 2008, dated 2014)

Experiments:
Kit = Kit (Homo sapiens, UniProt P10721); assay: Kit kinase assay; format: biochemical; conditions: 10 μM compound; read-out: Kit percent of inhibition
Description: (§1) General description of the kinase assays: the kinase activity was assayed in 96-well microtiter plates at a final compound concentration of 10 μM in a total volume of 50 μl. Compounds were dissolved in 100% DMSO to prepare a 10 mM stock solution and than diluted with buffer to reach a 10 μM (or the required) final concentration. The kinase concentration was used to yield 10% ATP turn over. The ATP concentration was used at the KmATP and 12.5 μCi/ml adenosine 5′[γ-33P]triphosphate. The substrate concentration was used at 5 fold excess over the Km for the substrate. The reaction was incubated for 1 hour at room temperature and stopped by addition of 10 μl 50 mM EDTA. The assay was transferred to a 96 well MAPH filter plate (Millipore). The radioactivity was counted on a Microbeta microplate counter.

IKK-beta = target: T1, IKK-beta (Homo sapiens, UniProt O14920); assay: IKK-beta kinase assay; format: biochemical; conditions: 10 μM compound; read-out: IKK-beta percent of inhibition
T1 sequence (O14920 1-756): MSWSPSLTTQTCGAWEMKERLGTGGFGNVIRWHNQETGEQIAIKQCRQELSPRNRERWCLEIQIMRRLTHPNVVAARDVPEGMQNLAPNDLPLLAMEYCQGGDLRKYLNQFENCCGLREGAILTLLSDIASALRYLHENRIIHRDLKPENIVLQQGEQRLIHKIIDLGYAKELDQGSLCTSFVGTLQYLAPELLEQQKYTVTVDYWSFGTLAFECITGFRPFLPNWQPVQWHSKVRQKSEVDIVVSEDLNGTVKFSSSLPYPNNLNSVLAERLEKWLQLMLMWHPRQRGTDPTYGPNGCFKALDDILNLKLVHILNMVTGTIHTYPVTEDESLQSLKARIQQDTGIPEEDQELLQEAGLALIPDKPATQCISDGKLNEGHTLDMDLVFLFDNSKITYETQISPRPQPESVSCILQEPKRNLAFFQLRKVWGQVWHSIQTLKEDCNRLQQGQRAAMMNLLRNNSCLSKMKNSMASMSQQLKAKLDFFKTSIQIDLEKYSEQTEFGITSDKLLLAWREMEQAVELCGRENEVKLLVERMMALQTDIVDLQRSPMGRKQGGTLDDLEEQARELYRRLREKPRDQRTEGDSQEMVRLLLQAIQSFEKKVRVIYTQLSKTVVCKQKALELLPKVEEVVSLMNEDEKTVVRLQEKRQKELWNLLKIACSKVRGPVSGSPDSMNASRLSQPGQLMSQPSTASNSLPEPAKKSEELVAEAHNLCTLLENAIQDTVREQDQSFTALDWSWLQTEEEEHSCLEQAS
Description: as §1

CK1-alpha = CK1-alpha (Homo sapiens, UniProt P48729); assay: CK1-alpha kinase assay; format: biochemical; conditions: 10 μM compound; read-out: CK1-alpha percent of inhibition
Description: as §1

CDK2/CycA = CDK2/CycA (Homo sapiens, UniProt P24941); assay: CDK2/CycA kinase assay; format: biochemical; conditions: 10 μM compound; read-out: CDK2/CycA percent of inhibition
Description: as §1

GSK-3beta = GSK-3beta (Homo sapiens, UniProt P49841); assay: GSK-3beta kinase assay; format: biochemical; conditions: 10 μM compound; read-out: GSK-3beta percent of inhibition
Description: as §1

SRPK1 = SRPK1 (Homo sapiens, UniProt Q96SB4); assay: SRPK1 kinase assay; format: biochemical; conditions: 10 μM compound; read-out: SRPK1 percent of inhibition
Description: as §1

ROCK2 = ROCK2 (Homo sapiens, UniProt O75116); assay: ROCK2 kinase assay; format: biochemical; conditions: 10 μM compound; read-out: ROCK2 percent of inhibition
Description: as §1

cMet = cMet (Homo sapiens, UniProt P08581); assay: cMet kinase assay; format: biochemical; conditions: 10 μM compound; read-out: cMet percent of inhibition
Description: as §1

MAPK-ERK1 = MAPK-ERK1 (Homo sapiens, UniProt P27361); assay: MAPK-ERK1 kinase assay; format: biochemical; conditions: 10 μM compound; read-out: MAPK-ERK1 percent of inhibition
Description: as §1

P70S6K = P70S6K (Homo sapiens, UniProt P23443); assay: P70S6K kinase assay; format: biochemical; conditions: 10 μM compound; read-out: P70S6K percent of inhibition
Description: as §1

PDGFR-beta = PDGFR-beta (Homo sapiens, UniProt P09619); assay: PDGFR-beta kinase assay; format: biochemical; conditions: 10 μM compound; read-out: PDGFR-beta percent of inhibition
Description: as §1

P56Lck = P56Lck (Homo sapiens, UniProt P06239); assay: P56Lck kinase assay; format: biochemical; conditions: 10 μM compound; read-out: P56Lck percent of inhibition
Description: as §1

c-Src = c-Src (Homo sapiens, UniProt P12931); assay: c-Src kinase assay; format: biochemical; conditions: 10 μM compound; read-out: c-Src percent of inhibition
Description: as §1

RSK1 = RSK1 (Homo sapiens, UniProt Q15418); assay: RSK1 kinase assay; format: biochemical; conditions: 10 μM compound; read-out: RSK1 percent of inhibition
Description: as §1

Abl = Abl (Homo sapiens, UniProt P00519); assay: Abl kinase assay; format: biochemical; conditions: 10 μM compound; read-out: Abl percent of inhibition
Description: as §1

AKT1/PKBa = AKT1/PKBa (Homo sapiens, UniProt P31749); assay: AKT1/PKBa kinase assay; format: biochemical; conditions: 10 μM compound; read-out: AKT1/PKBa percent of inhibition
Description: as §1

c-Raf = c-Raf (Homo sapiens, UniProt P04049); assay: c-Raf kinase assay; format: biochemical; conditions: 10 μM compound; read-out: c-Raf percent of inhibition
Description: as §1

EGFR = EGFR (Homo sapiens, UniProt P00533); assay: EGFR kinase assay (33P-ATP filter plate); format: biochemical; conditions: for inhibition at 10 µM: 10 μM compound, read-out: EGFR percent of inhibition; for IC50: EGFR-PTK assay
Description: as §1

Jnk1a1 = Jnk1a1 (Homo sapiens, UniProt P45983); assay: Jnk1a1 kinase assay; format: biochemical; conditions: 10 μM compound; read-out: Jnk1a1 percent of inhibition
Description: as §1

InsR = InsR (Homo sapiens, UniProt P06213); assay: InsR kinase assay; format: biochemical; conditions: 10 μM compound; read-out: InsR percent of inhibition
Description: as §1

GSK-3beta, sequence (P49841 whole entry, species assumed): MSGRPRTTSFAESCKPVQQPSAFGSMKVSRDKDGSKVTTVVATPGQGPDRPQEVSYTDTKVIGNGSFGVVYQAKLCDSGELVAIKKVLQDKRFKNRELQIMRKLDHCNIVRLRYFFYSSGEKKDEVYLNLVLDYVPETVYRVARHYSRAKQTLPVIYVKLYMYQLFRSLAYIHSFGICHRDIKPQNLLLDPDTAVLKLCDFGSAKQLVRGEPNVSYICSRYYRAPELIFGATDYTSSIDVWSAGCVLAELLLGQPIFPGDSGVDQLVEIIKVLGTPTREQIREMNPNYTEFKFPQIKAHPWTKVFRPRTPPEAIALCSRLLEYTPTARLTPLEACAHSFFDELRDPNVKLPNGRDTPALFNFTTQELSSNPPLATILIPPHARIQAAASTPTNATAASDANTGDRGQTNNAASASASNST
c-Raf, sequence (P04049 whole entry, species assumed): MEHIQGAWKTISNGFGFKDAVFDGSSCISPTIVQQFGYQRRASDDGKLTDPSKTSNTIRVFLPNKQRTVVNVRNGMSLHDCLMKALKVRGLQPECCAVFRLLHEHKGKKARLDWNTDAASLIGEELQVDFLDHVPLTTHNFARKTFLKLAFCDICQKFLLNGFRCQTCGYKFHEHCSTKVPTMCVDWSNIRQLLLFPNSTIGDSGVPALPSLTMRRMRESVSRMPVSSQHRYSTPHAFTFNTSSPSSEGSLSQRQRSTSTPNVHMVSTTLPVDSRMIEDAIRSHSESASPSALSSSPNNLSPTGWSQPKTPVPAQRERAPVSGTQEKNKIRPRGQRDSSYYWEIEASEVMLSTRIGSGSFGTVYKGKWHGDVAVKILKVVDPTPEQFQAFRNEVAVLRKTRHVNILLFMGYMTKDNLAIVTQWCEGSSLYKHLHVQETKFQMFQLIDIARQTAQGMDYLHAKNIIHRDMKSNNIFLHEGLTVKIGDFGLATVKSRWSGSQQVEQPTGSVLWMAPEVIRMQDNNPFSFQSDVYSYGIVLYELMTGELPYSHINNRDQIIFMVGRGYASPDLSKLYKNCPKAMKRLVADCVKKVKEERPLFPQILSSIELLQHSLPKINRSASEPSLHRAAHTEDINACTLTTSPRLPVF
P56Lck, sequence (P06239 whole entry, species assumed): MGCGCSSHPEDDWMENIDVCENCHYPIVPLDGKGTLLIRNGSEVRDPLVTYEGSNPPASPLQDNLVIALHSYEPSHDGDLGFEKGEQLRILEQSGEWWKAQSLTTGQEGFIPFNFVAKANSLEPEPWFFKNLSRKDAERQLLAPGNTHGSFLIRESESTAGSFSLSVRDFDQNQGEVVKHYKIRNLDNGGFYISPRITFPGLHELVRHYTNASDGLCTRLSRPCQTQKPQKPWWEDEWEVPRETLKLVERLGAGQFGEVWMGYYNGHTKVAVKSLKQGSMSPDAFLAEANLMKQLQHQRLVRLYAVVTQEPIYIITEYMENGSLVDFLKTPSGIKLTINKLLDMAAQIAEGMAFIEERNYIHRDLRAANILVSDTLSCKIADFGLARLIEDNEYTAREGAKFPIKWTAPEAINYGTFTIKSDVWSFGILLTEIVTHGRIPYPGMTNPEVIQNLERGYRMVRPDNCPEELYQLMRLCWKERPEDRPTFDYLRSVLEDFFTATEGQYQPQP
Kit, sequence (P10721 26-976, species assumed): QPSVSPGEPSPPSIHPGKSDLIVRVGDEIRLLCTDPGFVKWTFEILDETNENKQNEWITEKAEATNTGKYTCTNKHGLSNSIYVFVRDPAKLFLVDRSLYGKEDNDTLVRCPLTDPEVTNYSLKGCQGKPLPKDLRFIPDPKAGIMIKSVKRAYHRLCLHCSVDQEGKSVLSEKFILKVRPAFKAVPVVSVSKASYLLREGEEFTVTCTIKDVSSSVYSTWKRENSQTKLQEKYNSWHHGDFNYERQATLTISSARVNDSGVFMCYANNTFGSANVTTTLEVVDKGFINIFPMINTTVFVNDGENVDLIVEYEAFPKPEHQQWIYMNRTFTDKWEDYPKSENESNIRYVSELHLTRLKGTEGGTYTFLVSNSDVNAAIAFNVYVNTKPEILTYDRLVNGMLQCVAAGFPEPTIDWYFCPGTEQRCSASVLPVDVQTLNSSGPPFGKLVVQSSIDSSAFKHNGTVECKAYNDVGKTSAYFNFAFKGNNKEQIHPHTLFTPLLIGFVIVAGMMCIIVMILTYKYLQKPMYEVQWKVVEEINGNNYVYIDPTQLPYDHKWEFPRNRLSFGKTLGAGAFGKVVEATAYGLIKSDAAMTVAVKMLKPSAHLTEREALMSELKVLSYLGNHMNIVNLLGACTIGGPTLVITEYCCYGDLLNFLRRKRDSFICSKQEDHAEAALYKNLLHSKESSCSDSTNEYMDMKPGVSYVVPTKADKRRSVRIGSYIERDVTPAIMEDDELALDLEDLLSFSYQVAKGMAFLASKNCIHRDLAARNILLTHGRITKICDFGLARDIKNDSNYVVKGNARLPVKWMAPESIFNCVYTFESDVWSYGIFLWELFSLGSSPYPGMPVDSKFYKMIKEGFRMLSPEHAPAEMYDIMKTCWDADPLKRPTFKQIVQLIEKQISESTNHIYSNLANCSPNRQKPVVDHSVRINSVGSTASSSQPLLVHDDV
Jnk1a1, sequence (P45983 1-384 isoform P45983-2): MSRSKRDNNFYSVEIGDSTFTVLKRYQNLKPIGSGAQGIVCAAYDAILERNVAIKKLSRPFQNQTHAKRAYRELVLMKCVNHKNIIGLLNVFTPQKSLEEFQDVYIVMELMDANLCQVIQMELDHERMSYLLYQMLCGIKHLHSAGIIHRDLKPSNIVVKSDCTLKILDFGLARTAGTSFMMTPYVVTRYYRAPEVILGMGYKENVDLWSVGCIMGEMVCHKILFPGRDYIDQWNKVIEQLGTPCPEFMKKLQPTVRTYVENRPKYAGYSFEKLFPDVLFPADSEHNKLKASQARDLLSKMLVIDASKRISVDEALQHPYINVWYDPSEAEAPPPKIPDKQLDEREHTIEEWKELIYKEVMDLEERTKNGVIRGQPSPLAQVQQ
MAPK-ERK1, sequence (P27361 whole entry): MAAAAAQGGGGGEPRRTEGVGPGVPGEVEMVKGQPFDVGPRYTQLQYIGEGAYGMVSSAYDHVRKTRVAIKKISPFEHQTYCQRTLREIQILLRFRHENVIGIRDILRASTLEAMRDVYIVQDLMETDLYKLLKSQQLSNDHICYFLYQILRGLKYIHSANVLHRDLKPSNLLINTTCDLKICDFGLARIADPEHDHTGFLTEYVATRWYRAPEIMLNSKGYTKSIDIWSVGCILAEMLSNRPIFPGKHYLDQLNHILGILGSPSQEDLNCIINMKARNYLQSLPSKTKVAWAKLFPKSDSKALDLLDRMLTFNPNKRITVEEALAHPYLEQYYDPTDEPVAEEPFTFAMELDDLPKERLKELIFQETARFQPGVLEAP
AKT1/PKBa, sequence (P31749 whole entry): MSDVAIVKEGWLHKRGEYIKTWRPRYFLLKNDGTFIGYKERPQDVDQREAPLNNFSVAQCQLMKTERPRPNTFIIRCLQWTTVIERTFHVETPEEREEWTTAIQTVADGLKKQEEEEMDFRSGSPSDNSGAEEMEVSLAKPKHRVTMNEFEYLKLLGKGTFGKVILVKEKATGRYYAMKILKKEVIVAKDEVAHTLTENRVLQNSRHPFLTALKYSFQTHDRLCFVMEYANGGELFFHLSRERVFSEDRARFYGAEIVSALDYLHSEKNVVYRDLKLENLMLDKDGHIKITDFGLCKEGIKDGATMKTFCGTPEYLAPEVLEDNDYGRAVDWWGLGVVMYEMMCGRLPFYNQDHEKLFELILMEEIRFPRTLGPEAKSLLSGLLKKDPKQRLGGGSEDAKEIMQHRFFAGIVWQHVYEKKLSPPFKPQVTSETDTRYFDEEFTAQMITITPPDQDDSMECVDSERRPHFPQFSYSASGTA
EGFR, sequence (P00533 25-1210): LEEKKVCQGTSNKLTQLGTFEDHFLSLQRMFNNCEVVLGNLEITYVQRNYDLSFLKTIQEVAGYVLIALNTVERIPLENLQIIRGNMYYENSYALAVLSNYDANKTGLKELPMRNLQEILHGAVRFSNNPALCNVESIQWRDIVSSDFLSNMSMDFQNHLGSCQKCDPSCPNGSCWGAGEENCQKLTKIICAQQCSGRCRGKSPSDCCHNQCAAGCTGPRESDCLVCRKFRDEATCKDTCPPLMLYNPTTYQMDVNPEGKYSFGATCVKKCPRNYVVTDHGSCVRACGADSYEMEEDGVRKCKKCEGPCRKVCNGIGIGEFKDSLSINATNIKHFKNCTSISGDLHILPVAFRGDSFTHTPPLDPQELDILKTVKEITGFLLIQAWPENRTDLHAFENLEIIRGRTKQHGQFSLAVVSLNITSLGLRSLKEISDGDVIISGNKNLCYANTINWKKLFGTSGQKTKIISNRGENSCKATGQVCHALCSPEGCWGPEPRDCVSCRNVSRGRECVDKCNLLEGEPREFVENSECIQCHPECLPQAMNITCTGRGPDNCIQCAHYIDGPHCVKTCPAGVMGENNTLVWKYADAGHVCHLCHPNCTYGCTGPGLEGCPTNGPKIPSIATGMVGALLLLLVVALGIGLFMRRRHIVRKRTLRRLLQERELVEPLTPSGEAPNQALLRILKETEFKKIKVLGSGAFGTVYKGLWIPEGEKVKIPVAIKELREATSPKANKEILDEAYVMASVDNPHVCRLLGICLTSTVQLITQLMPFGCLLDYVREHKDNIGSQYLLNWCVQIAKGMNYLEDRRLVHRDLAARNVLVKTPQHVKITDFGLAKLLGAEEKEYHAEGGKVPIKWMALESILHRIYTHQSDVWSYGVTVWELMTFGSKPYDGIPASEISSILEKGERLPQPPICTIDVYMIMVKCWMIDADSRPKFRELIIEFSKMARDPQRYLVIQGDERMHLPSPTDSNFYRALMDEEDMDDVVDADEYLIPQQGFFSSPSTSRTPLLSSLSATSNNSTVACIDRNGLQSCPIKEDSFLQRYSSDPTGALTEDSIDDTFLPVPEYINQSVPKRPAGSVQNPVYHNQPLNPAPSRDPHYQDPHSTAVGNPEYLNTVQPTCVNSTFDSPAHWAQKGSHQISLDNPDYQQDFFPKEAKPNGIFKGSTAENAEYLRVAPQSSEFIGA

Row | inhibition at 10 µM (Kit) | inhibition at 10 µM (IKK-beta) | inhibition at 10 µM (CK1-alpha) | inhibition at 10 µM (CDK2/CycA) | inhibition at 10 µM (GSK-3beta) | inhibition at 10 µM (SRPK1) | inhibition at 10 µM (ROCK2) | inhibition at 10 µM (cMet) | inhibition at 10 µM (MAPK-ERK1) | inhibition at 10 µM (P70S6K) | inhibition at 10 µM (PDGFR-beta) | inhibition at 10 µM (P56Lck) | inhibition at 10 µM (c-Src) | inhibition at 10 µM (RSK1) | inhibition at 10 µM (Abl) | inhibition at 10 µM (AKT1/PKBa) | inhibition at 10 µM (c-Raf) | inhibition at 10 µM (EGFR) | inhibition at 10 µM (Jnk1a1) | inhibition at 10 µM (InsR) | Compound | further results
1 | 8% | 9% | 3% | 4% | 0% | 18% | 0% | -2% | 21% | 9% | -1% | 0% | 23% | 7% | 7% | -2% | 9% | 46% | -5% | -12% | COc1cccc(Nc2nc(C3CC3)nc3sc4ccccc4c23)c1 [Compound 20, (2-Cyclopropyl-benzo[4,5]thieno[2,3-d]pyrimidin-4-yl)-(3-methoxy-phenyl)-amine] | melting point: 198 °C
2 | -2% | 11% | 17% | 4% | -10% | 8% | 12% | -8% | 0% | 4% | 1% | 17% | 17% | 23% | -36% | -27% | -4% | 100% | 4% | -9% | Brc1cccc(Nc2ncnc3sc4c(c23)CCCC4)c1 [Compound 3, (3-Bromo-phenyl)-(5,6,7,8-tetrahydro-benzo[4,5]thieno[2,3-d]pyrimidin-4-yl)-amine] | IC50 (EGFR): 2.61 nM; melting point: 169 °C
3 | 10% | 9% | 5% | -1% | 2% | -3% | 3% | -7% | -9% | -17% | 15% | 30% | 25% | -15% | -9% | -11% | -20% | 100% | -7% | -16% | Clc1ccc(Nc2ncnc3sc4c(c23)CCCC4)cc1 [Compound 7, (4-Chloro-phenyl)-(5,6,7,8-tetrahydro-benzo[4,5]thieno[2,3-d]pyrimidin-4-yl)-amine] | IC50 (EGFR): 12.8 nM; melting point: 191.2 °C
4 | 1% | 11% | -2% | -6% | 5% | 6% | 4% | 5% | 5% | 5% | -8% | 11% | 9% | -2% | 8% | -7% | -6% | 98% | 0% | 18% | Clc1cccc(Nc2ncnc3sc4ccccc4c23)c1 [Compound 22, Benzo[4,5]thieno[2,3-d]pyrimidin-4-yl-(3-chloro-phenyl)-amine] | melting point: 168 °C
5 | -6% | -2% | -3% | -10% | -6% | 7% | 5% | -14% | 2% | 0% | -2% | 0% | 3% | 2% | -20% | -10% | -6% | 66% | -6% | 3% | Clc1cccc(Nc2nc(C3CC3)nc3sc4c(c23)CCCC4)c1 [Compound 9, (3-Chloro-phenyl)-(2-cyclopropyl-5,6,7,8-tetrahydro-benzo[4,5]thieno[2,3-d]pyrimidin-4-yl)-amine] | melting point: 208.6 °C
6 | 5% | 3% | 10% | -2% | 0% | 12% | 4% | -7% | -6% | 2% | 0% | 11% | 22% | -4% | -2% | 0% | -8% | 87% | -7% | 5% | Brc1cccc(Nc2nc(C3CC3)nc3sc4ccccc4c23)c1 [Compound 18, (2-Cyclopropyl-benzo[4,5]thieno[2,3-d]pyrimidin-4-yl)-(3-bromo-phenyl)-amine] | melting point: 180 °C
7 | -12% | 10% | 4% | -11% | -8% | 18% | 6% | 3% | 9% | 6% | -5% | 3% | 3% | -12% | -2% | 0% | -3% | 23% | -12% | 2% | Oc1cccc(Nc2nc(C3CC3)nc3sc4c(c23)CCCC4)c1 [Compound 10, 3-(2-Cyclopropyl-5,6,7,8-tetrahydro-benzo[4,5]thieno[2,3-d]pyrimidin-4-ylamino)-Phenol] | melting point: 239.7 °C
